Source: PubChem BioAssay AID624270 (Broad Institute, 2012)
Active and inactive are the calls of the source. How the calls were made is not given here.

What was measured:
[1] = test system: V. cholerae BH1578 lux luminescence, 6 h; assay: Cholera quorum agonist confirmation, luxS deficient cqsA deficient strain BH1578, luminescence (AID 624270)
[2] = as above; conditions: V. cholerae BH1578 lux luminescence, 6 h; at 35 µM (top of the series)

Structure (SMILES)	AC50 [1]	activation (light induction) [2]
CCC(C)NC(=O)Cc1ccc(-c2ccccc2)cc1 (stereo not given)	1.24 µM	–
Cc1ccc(CC(=O)NC2CCCC2)cc1	–	15.8% (inactive)
Cc1c(Cl)cccc1-n1cnc(=O)c2ccccc21	> 35 µM (inactive)	–
COc1ccccc1NC(=O)COC(=O)c1ccc(C)cc1	0.397 µM	–
COc1ccccc1NC(=O)COC(=O)c1oc2ccccc2c1C	1.57 µM	–
COc1ccccc1NC(=O)COC(=O)c1cc2c(s1)CCC2	0.0662 µM	–
CCOc1ccc(Nc2ccc3nonc3c2[N+](=O)[O-])cc1	0.183 µM	–
COc1ccc(Cl)cc1NC(=O)COC(=O)c1ccc(C)o1	0.0638 µM	–
O=C(Cc1ccc(-c2ccccc2)cc1)NC1CCCC1	0.104 µM	–
Cc1ccc(OCCNC(=O)c2cccc(C)c2)cc1	0.096 µM	–
CCCn1nnnc1NCc1ccc(N(CC)CC)cc1	0.0548 µM	–
O=c1ncn(-c2cccc(Cl)c2)c2ccccc12	0.00129 µM	–
CCn1nnnc1NCc1ccc(N2CCCC2)cc1	0.00414 µM	–
CCn1nnc(NCc2ccc(C)cc2)n1	–	0.27% (inactive)
CCCn1nnnc1NCc1ccc(N2CCCC2)cc1	0.0138 µM	–
CCCn1nnnc1NCc1ccc(C(C)C)cc1	0.0452 µM	–
CCCn1nnnc1NCc1ccccc1Cl	–	1.22% (inactive)
CCn1c(CC(=O)Nc2cccc(Cl)c2Cl)nnc1SCCOc1ccc(OC)cc1	–	1.79% (inactive)
O=C(Nc1nnc(-c2ccc3c(c2)OCCO3)o1)C1CCCCC1	1.38 µM	–
Cc1ccc2cc3c(NC(=O)c4ccco4)nn(C)c3nc2c1	2.87 µM	–
